Results taken from patent publication US8343961B2, “Substituted heterocyclic compounds” (ArQule, Inc., priority 2009, dated 2013).

Legend:
[1] = target: RET kinase (Homo sapiens, UniProt P07949); assay: RET Kinase Activity Assay; type: biochemical; conditions: read-out: Ret, % INH, at 30 uM
Protocol: (§1) The disclosed compounds were assayed for their ability to inhibit the activity of RET kinase. Nunc Maxwasorb plates were coated with streptavidin by overnight incubation with 100 μL per well of 1 μg/mL Streptavidin in DPBS. Prior to the start of the experiment, the plates were washed with TBST (3×200 μL) and blocked for at least 1 hour by adding 150 μL of 5% BSA/TBST. The plates were washed with TBST (3×200 4/well) and left dry immediately before the capture step.
The test articles and controls (Staurosporine and Sutent) were prepared using the following assay buffer @ 3× desired final concentration (50 mM […], 0.02 mg/mL BSA, 10 mM MgCl2, 0.1 mM Na3VO4, 1 mM EGTA, 75 μM ATP0.01% NP-40, 2 mM DTT in 10% glycerol/water). In a reaction plate, were added rapidly 20 μL test article (or control) and 20 μL RET (0.25 ng/4 final concentration). The plate was incubated for 15 minutes. To the reaction plate was added 20 μL of Pyk-2 (0.25 ng/4 final concentration). The plate was incubated at room temperature for one hour.
From the reaction plate, 50 μL was transferred to the streptavidin coated plate. The capture plate was incubated at room temperature for 30 minutes then washed 6× with TBST. To the capture plate was added 100 μL/well of Cell Signaling anti-phospho tyrosine at a dilution of 1:3000 in 2% BSA/TBST. The plate was incubated for one hour at room temperature then washed 6× with TBST. To the capture plate was added 100 μL/well of Alkaline Phosphatase Tagged Goat anti Mouse Antibody at a dilution of 1:4000 in 2% BSA/TBST. The plate was incubated for one hour at room temperature then washed 6× with TBST. The fluorescent readout was initiated by the addition of 100 μL/well of Attophos reagent (6 mg/10 mL). The reading was done on the Perkin Elmer Envision system.

[2] = target: T1, Tec kinase (Homo sapiens, UniProt P42680); assay: Tec Kinase Activity Assay; type: biochemical; conditions: read-out: Tec % INH, at 30 uM
T1 sequence (P42680 1-631): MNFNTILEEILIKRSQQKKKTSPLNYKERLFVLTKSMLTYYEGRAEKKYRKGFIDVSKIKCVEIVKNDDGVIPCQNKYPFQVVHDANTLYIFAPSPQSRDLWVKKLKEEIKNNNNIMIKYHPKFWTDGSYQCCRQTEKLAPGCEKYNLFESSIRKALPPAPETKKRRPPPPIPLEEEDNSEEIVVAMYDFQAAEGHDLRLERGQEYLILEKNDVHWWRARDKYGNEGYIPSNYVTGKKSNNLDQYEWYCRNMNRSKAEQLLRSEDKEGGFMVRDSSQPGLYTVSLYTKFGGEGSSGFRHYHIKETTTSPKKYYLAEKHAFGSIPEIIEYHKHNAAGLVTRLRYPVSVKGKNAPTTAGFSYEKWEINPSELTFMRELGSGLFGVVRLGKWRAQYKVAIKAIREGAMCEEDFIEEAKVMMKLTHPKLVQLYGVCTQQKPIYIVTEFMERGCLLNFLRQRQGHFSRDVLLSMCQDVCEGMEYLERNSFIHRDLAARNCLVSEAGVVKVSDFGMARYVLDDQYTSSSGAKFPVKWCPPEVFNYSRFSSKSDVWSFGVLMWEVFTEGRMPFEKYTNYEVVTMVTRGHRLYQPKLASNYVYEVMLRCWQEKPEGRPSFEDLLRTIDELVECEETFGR
Protocol: as §1, with “Tec” for “RET”, “Maxisorb” for “Maxwasorb”, “μL/well)” for “4/well)”
The test articles and controls (Staurosporine and Sutent) were prepared using the following assay buffer @ 3× desired final concentration (50 mM Tris-HCl, 0.02 mg/mL BSA, 10 mM MgCl2, 0.1 mM Na3VO4, 1 mM EGTA, 75 μM ATP0.01% NP-40, 2 mM DTT in 10% glycerol/water). In a reaction plate were added rapidly 20 μL test article (or control) and 20 μL TEC 0.25 ng/4. The plate was incubated for 30 minutes. To the reaction plate was added 20 μL of Pyk-2.5 ng/μL. The plate was incubated at room temperature for two hours. From the reaction plate, 50 μL was transferred to the streptavidin coated plate. The capture plate was incubated at room temperature for 30 minutes then washed 6× with TBST. To the capture plate was added 100 μL/well of Cell Signaling anti-phospho tyrosine at a dilution of 1:3000 in 2% BSA/TBST. The plate was incubated for one hour at room temperature then washed 6× with TBST. To the capture plate was added 100 μL/well of Alkaline Phosphatase Tagged Goat anti Mouse Antibody at a dilution of 1:4000 in 2% BSA/TBST. The plate was incubated for one hour at room temperature then washed 6× with TBST. The fluorescent readout was initiated by the addition of 100 μL/well of Attophos reagent (6 mg/10 mL). The reading was done on the Perkin Elmer Envision system.

RET kinase, sequence (P07949 29-1114): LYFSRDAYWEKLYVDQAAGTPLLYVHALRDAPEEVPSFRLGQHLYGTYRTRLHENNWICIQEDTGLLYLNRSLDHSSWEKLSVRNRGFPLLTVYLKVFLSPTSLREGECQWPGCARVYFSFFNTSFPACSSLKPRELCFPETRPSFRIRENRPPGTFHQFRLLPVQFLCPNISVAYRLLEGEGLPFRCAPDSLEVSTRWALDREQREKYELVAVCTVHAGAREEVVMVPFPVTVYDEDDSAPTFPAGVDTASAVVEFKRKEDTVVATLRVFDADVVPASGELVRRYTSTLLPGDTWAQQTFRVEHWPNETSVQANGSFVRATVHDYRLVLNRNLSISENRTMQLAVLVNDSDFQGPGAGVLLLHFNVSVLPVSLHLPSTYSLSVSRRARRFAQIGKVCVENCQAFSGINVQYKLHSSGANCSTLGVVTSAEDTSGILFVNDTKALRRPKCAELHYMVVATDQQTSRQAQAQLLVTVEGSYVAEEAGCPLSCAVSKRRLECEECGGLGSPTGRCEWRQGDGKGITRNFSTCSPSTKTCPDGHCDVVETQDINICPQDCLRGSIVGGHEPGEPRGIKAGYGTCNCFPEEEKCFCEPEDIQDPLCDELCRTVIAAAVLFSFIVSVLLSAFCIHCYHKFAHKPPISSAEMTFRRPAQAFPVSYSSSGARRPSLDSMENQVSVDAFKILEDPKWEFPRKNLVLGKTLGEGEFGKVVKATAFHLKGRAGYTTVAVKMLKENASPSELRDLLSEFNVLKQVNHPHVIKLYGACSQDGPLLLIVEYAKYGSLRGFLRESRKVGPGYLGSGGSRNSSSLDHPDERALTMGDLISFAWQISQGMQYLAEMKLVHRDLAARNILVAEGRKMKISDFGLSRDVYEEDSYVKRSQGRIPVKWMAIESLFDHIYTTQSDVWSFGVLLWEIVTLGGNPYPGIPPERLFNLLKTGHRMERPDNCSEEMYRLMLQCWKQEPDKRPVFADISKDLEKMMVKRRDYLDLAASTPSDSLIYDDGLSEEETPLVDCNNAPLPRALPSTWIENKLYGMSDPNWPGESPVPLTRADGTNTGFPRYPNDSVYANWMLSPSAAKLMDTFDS

Row | inhibition at 30 µM [1] | inhibition at 30 µM [2] | SMILES
1 | < 50% | < 50% | COc1cc2c(cc1OC)C(c1ccccc1Cl)N(c1nc(N)nc3[nH]cnc13)CC2 (stereo not shown) [Compound 48, 6-[1-(2-chlorophenyl)-6,7-dimethoxy-3,4-dihydroisoquinolin-2(1H)-yl]-9H-purin-2-amine]
2 | < 50% | < 50% | COc1cc2c(cc1OC)C(c1cccc(C(F)(F)F)c1)N(c1nc(N)nc3[nH]cnc13)CC2 (stereo not shown) [Compound 50, 6-{6,7-dimethoxy-1-[3-(trifluoromethyl)phenyl]-3,4-dihydroisoquinolin-2(1H)-yl}-9H-purin-2-amine]
